Here are results for 80 molecules from the METLIN SMRT retention time set (Domingo-Almenara et al. 2019).

Structures are written as SMILES.

The data set in a line: gradient 5% acetonitrile 3 min, to 50% in 2 min, to 85% in 15 min, held 3 min, 100 µL/min. To be noted: column: Zorbax Extend-C18 2.1 x 50 mm; eluents: water / acetonitrile, 0.1% formic acid. The essentials: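 The mobile phases were water and acetonitrile, each with 0.1% formic acid, pumped at 100 μL/min through a Zorbax Extend-C18 column (2.1 × 50 mm, 1.8 μm). Pure standards were injected as mixtures of ~100 molecules and detected by a quadrupole time-of-flight mass spectrometer in positive and negative ionization mode. Retention time came from computationally picked adduct peaks, each inspected by hand.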
Molecule `Cc1ccc2c(c1)N(S(C)(=O)=O)CCC(C(=O)Nc1ccc(C)c(Cl)c1)O2` (stereo not given) yielded an RP-LC retention time of 1090 s.

Regarding `O=C(NCC1CCCO1)c1ccc2ncnc(N3CCCCC3)c2c1` (stereo not given), the RP-LC retention time is 594 s.

`CC(C)(C)NC(=O)N1C[C@@H]2CN(S(=O)(=O)c3cccc(F)c3)C[C@H](C1)O2` came in with an RP-LC retention time of 765 s.

On to `CC1CCN(c2cncnc2-n2cc(NC(=O)Cc3cccs3)cn2)CC1`, for which the RP-LC retention time is 740 s.

In turn, `CC(C)N1C(=O)C(C)(C(=O)Nc2ccc(Cl)cc2)Oc2cccnc21` (stereo not given) showed an RP-LC retention time of 903 s.

In turn, `CCc1noc(-c2ccc(SCC(=O)N3CCCCC3)nc2)n1` yielded an RP-LC retention time of 875 s.

Molecule `CCc1nc(-c2ccc3c(c2)CCN3C(=O)Cc2cccc(F)c2)no1` came in with an RP-LC retention time of 1030 s.

`CCOCC(=O)N1CCCN(C2=NS(=O)(=O)C(c3ccc(C)c(C)c3)=C2C)CC1` had an RP-LC retention time of 795 s.

Molecule `COc1ccc(Nc2ncnc3[nH]ncc23)c(OC)c1` came in with an RP-LC retention time of 568 s.

In the case of `COc1cc(NC(=O)c2cn3c(n2)CN(CC(C)C)CC3)cc(OC)c1`, the RP-LC retention time turned out to be 818 s.

As to `O=C(NCCc1ccc(Cl)cc1)C1CCN(C(=O)C2Sc3ccccc3NC2=O)CC1` (stereo not given), the RP-LC retention time worked out at 774 s.

The molecule `CCc1nc(OCC(=O)N(CC)c2ccccc2)c2ccccc2n1` displayed an RP-LC retention time of 798 s.

`O=C(c1cocn1)N1CC(F)(F)C[C@H]1c1nnc(-c2ccccc2)o1` gave an RP-LC retention time of 761 s.

The molecule `CC(=O)c1cccc(NC(=O)c2nc(N(C)C)c3c(C)cc(C)nc3n2)c1` displayed an RP-LC retention time of 564 s.

With `Cc1ccc(Cl)cc1NC(=O)NCC1CCOCC1`, the RP-LC retention time amounted to 750 s.

As for `O=C(NCc1nc(-c2ccc(NS(=O)(=O)c3ccc(F)cc3)cc2)no1)c1cccs1`, the RP-LC retention time amounted to 867 s.

Take `CCn1nccc1C(=O)Nc1cc(-c2cc3ccccc3n2CC)[nH]n1`: the RP-LC retention time was 876 s.

`NC(=O)COC1CCC12CCN(C(=O)C1CCCCC1)CC2` (stereo not given): the RP-LC retention time came to 715 s.

Molecule `CC(C)N1CCN(S(=O)(=O)c2cc(-c3nnc(C4CCCC4)o3)co2)CC1` displayed an RP-LC retention time of 641 s.

Regarding `Cc1cc(N2CCN(C)CC2)nc(N2CCN(S(=O)(=O)c3ccc(-c4ccccc4)cc3)CC2)n1`, the RP-LC retention time stood at 615 s.

With `COc1ccc2c(C)c(C(=O)Nc3ccc4cn[nH]c4c3)oc2c1`, the RP-LC retention time was determined as 794 s.

As for `Cc1ccn2cc(CNS(=O)(=O)c3ccc(-c4ccccc4)cc3)nc2c1`, the RP-LC retention time came out at 588 s.

In turn, `CC(C)COC(=O)NCCc1nc2ccccc2[nH]1` came in with an RP-LC retention time of 556 s.

`COc1ccc(C(=O)N2CCC3(CC2)N=C(c2ccc(Br)cc2)NO3)cc1OC`: the RP-LC retention time is 820 s.

`CCn1cc(C(=O)Nc2ccc(F)c(F)c2)c(S(=O)(=O)N2CCSCC2)n1` came in with an RP-LC retention time of 1010 s.

Molecule `CCOC(=O)c1ccccc1NC(=O)CSc1nnc(NC(=O)C(C)(C)C)s1` came in with an RP-LC retention time of 929 s.

`Cc1[nH]c2ccccc2c1C(=O)C(c1ccccc1)N1CCN(c2ncccn2)CC1` (stereo not given): the RP-LC retention time amounted to 682 s.

Turning to `COCc1cc2nn(CC(=O)Nc3cccc(C)c3)c(=O)n2c(-c2ccccc2)n1`, the RP-LC retention time is 905 s.

In turn, `O=C(Cn1c(=O)cc(C(=O)N2CCCC2)c2ccccc21)Nc1cccc(Br)c1` displayed an RP-LC retention time of 780 s.

The molecule `Cc1ccc(CNC(=O)NC2CCN(c3nc4cccnc4n(C)c3=O)CC2)cc1` gave an RP-LC retention time of 860 s.

As for `COc1cc(NS(=O)(=O)c2ccc3c(c2)C(=O)N(C)c2ncccc2O3)cc(OC)c1`, the RP-LC retention time turned out to be 868 s.

In turn, `Oc1cc2c(cc1O)C(c1ccccc1)CNCC2` (stereo not given) came in with an RP-LC retention time of 585 s.

Molecule `O=C(COc1ccc(Cl)cc1)N1CCc2nc[nH]c2C1` gave an RP-LC retention time of 606 s.

For `CC1CCCN(C(=O)Cc2nnc3cc(-c4nc(C5CC5)no4)ccn23)C1` (stereo not given), the RP-LC retention time was determined as 759 s.

For the molecule `O=C(NCc1cccs1)C1CCN(c2cnn(Cc3ccccc3)c(=O)c2)CC1`, the RP-LC retention time worked out at 742 s.

Molecule `CC(C)Cn1c(=O)c2nscc2n(CC(=O)NC(C)C)c1=O` had an RP-LC retention time of 693 s.

The molecule `CCS(=O)(=O)N1CCC(N2C(=O)[C@H](OCCOC)[C@@H]2c2ccncc2)CC1` registered an RP-LC retention time of 561 s.

As for `COc1ccccc1N1CCN(C(=O)c2cc3c(=O)n(C)ccc3n2C)CC1`, the RP-LC retention time was 651 s.

Molecule `Cc1ccc(N2C=C(C(=O)N3CCOCC3)S(=O)(=O)c3ccc(F)cc32)cc1C` showed an RP-LC retention time of 887 s.

`Cc1ccc(C)c(NC(=O)Cn2nc3nc(N4CCCC4)ccn3c2=O)c1` yielded an RP-LC retention time of 687 s.

In turn, `Cc1cc2n(n1)CCC(=O)N2CCCC(=O)NCc1cccs1` came in with an RP-LC retention time of 637 s.

With `COc1ccccc1-c1noc(C2CCCN2C(=O)Nc2ccc3c(c2)OCO3)n1` (stereo not given), the RP-LC retention time came to 812 s.

Turning to `COc1cccc(NC(=O)C2CC(=O)N(c3n[nH]c4cccc(F)c34)C2)c1` (stereo not given), the RP-LC retention time was 737 s.

For the molecule `Cc1ccc(-c2noc(C3CCCN3S(=O)(=O)c3ccc(F)c(Cl)c3)n2)cc1` (stereo not given), the RP-LC retention time stood at 1240 s.

In the case of `CCC(C)C(NC(=O)c1cccc(F)c1)C(=O)Nc1nc2ccccc2[nH]1` (stereo not given), the RP-LC retention time turned out to be 748 s.

In turn, `CCC(C)C(NC(=O)Cc1cccc(OC)c1)C(=O)Nc1nc2ccccc2[nH]1` (stereo not given) returned an RP-LC retention time of 733 s.

`CSc1ccccc1NC(=O)Cc1csc(NC(=O)c2ncccn2)n1` had an RP-LC retention time of 657 s.

Consider `CC(NC(=O)c1ccc2nc(-c3ccccc3)cn2c1)c1ccccn1` (stereo not given), for which the RP-LC retention time stood at 572 s.

`Cc1ccc(-c2noc(C3CC3)n2)cc1S(=O)(=O)N1CCC(C(=O)Nc2ncccc2C)CC1` gave an RP-LC retention time of 768 s.

In the case of `Cc1nnc2cc(N3CCN(C(=O)Nc4ccc(Cl)cc4)CC3)cnn12`, the RP-LC retention time was determined as 657 s.

`CCCC(NC(=O)c1ccncc1)C(=O)Nc1nc2ccccc2[nH]1` (stereo not given) had an RP-LC retention time of 602 s.

In turn, `O=c1c2cnc3nc(-c4ccc(Cl)cc4)nn3c2ccn1CCO` gave an RP-LC retention time of 716 s.

The molecule `CC1CCCN(S(=O)(=O)c2ccc(-c3nnc(C4CCC4)o3)o2)C1` (stereo not given) came in with an RP-LC retention time of 1010 s.

As for `Cc1oc(-c2[nH]ncc2C(=O)N2CCOCC2)cc1S(=O)(=O)Nc1ccccc1F`, the RP-LC retention time came to 662 s.

`CCn1cnc2ccc(-c3noc(-c4cccc(F)c4)n3)cc21` came in with an RP-LC retention time of 769 s.

The molecule `Cc1cc(N2CCN(C(=O)Nc3cccc(C(F)(F)F)c3)CC2)nc(N2CCCC2)n1` gave an RP-LC retention time of 760 s.

As to `O=C(NC1CCCCC1)c1ccc(-c2csc(C3CC3)n2)cc1`, the RP-LC retention time turned out to be 1050 s.

`COc1cc(NC(=O)c2c(S(=O)(=O)Nc3ccc(Cl)cc3)n[nH]c2C)cc(OC)c1` displayed an RP-LC retention time of 886 s.

In the case of `O=C(CSc1nnc(-c2csc3c2CCCC3)o1)Nc1ccccc1`, the RP-LC retention time came to 769 s.

On to `CC(=O)Nc1ccc(-n2cnc(C(=O)N3CCN(C4CCCCC4)CC3)c2)nc1`, for which the RP-LC retention time came out at 566 s.

`Cc1ccc(CNC(=O)NCCn2cnc3cc(C(=O)NC4CCCC4)ccc32)cc1` came in with an RP-LC retention time of 652 s.

Turning to `COC(=O)C1=C(N)Oc2cc(C)n(CCN(C)C)c(=O)c2C1c1ccccc1F` (stereo not given), the RP-LC retention time was found to be 616 s.

Turning to `CON=C(C(=O)NC1C(=O)N2C(C(=O)O)=C(CSc3nc(C)c(CC(=O)O)s3)CSC12)c1csc(N)n1` (stereo not given), the RP-LC retention time is 629 s.

Molecule `CCOc1ccccc1C(=O)NCC1CCN(Cc2ccccn2)CC1` came in with an RP-LC retention time of 561 s.

Take `CCNC(=O)CN1C(=O)C2CCCCN2c2ccc(S(=O)(=O)N(CC)CC)cc21` (stereo not given): the RP-LC retention time came to 804 s.

`Cn1nc(-c2nc(-c3ccccc3F)no2)c2c1CCN(C(=O)C1(c3ccccc3)CC1)C2` came in with an RP-LC retention time of 1010 s.

In turn, `COc1cccc(NS(=O)(=O)c2cc(-c3[nH]ncc3C(=O)N3CCCC3)oc2C)c1` gave an RP-LC retention time of 693 s.

For the molecule `CCC(=O)N1CCCC1c1nc2ccccc2n1CC(=O)N(c1ccccc1)C(C)C` (stereo not given), the RP-LC retention time is 709 s.

In turn, `O=C(Nc1ccc(F)cc1F)c1ccc2ncsc2c1` returned an RP-LC retention time of 713 s.

As for `COc1ccc(-n2ccnc(NC(=O)Nc3ccc(F)cc3)c2=O)cc1OC`, the RP-LC retention time was determined as 848 s.

The molecule `Cc1ccc(-c2nnc(-c3nc(N4CCN(c5ccccn5)CC4)c4ccccc4n3)o2)cc1` had an RP-LC retention time of 676 s.

The molecule `CCOc1ccc(-c2ccc(=O)n(Cc3nc(-c4ccc(C)c(C)c4)no3)n2)cc1` showed an RP-LC retention time of 576 s.

`COc1ccc(C2CN(S(=O)(=O)c3ccc(C#N)cc3)CCN2C)cc1` (stereo not given): the RP-LC retention time turned out to be 564 s.

As to `CC1CCN(C(=O)C2N(C(C)C)C(=O)C23CCCC3)CC1` (stereo not given), the RP-LC retention time was 737 s.

Take `CCCCc1ccc(NC(=O)CSc2cc(N3CCC(C(=O)NCCC)CC3)ncn2)cc1`: the RP-LC retention time is 967 s.

The molecule `CCc1nc2c(c(=O)n1CC(=O)NCc1cccc(C)c1)CN(Cc1ccccc1)CC2` registered an RP-LC retention time of 661 s.

The molecule `O=C(CCn1nnc2cc(-c3noc(COc4ccc(F)cc4)n3)ccc21)N1CCOCC1` yielded an RP-LC retention time of 823 s.

With `Cn1c(=O)c2cc(C(=O)NCc3ccccc3C(F)(F)F)nn2c2ccccc21`, the RP-LC retention time stood at 940 s.

`Cc1ncnc2c1CCC(=O)N2CC1CCCCC1` had an RP-LC retention time of 848 s.

In turn, `O=C(CCC1CCN(c2cc(NC3CC3)ncn2)CC1)N1CCN(c2ncccn2)CC1` yielded an RP-LC retention time of 615 s.
